Data on 6 molecules can be found in publication PMC10610424, “Enhancing Solubility and Dissolution Rate of Antifungal Drug Ketoconazole through Crystal Engineering” (Pharmaceuticals, 2023).

Structures are written as SMILES. ≈ marks a conversion by molar mass, not a printed value.

The conditions of series [1]: cited from earlier work.
Series [2] is described as follows: Equilibrium solubility, shake flask method, HPLC of KTZ. The series is classed as physicochemical. To be noted: for Equilibrium solubility, concentration of KTZ / solubility thermodynamic at 48 h: 37.0 °C, mean ± SD, triplicate; for Equilibrium solubility, concentration of KTZ / Solid-form stability of residual solids after equilibrium solubility experiments (PXRD) / solubility thermodynamic at 48 h: 48 h; for Solid-form stability of residual solids after equilibrium solubility experiments (PXRD): ultrapure water and pH 4.5 acetate buffer. As for the experimental part: The solutions were stirred at 160 strokes min^−1 with a magnetic bar at 37 °C for 48 h to reach equilibrium. The suspension was filtered through a 0.22 μm nylon filter membrane, diluted appropriately, and analyzed by subsequent high-performance liquid chromatography (HPLC) analysis. […] An Agilent Eclipse XDB−C18 (250 mm × 4.6 mm, 5 μm) column was used throughout the process of elution with the column temperature set to 30 °C. The mobile phase, consisting of methanol and water (80/20, v/v), was run at 1.0 mL min^−1 with a detection wavelength of 254 nm. The injection sample volume was 10 μL. The measurements were performed based on an external standard method. All the solubility experiments were performed in triplicate and the results are expressed as the mean value ± standard deviation (SD). Residual solids were collected after the equilibrium solubility experiment and characterized by PXRD for solid-form stability examinations.

Series [3] is described as follows: Powder dissolution experiments, basket method. It counts as physicochemical. To be noted: pure water and pH 4.5 acetate buffer, 37 °C, up to 480 min. As to the method: The powder dissolution experiments were performed via a dissolution apparatus (RC12AD dissolution tester, TDTF Technology Co., Ltd., Tianjin, China) by a basket method in pure water and pH 4.5 acetate buffer solution, respectively, with a rotation speed of 100 rpm under a temperature of 37 ± 0.2 °C [67]. […] At regular time intervals of 5, 15, 30, 60, 90, 120, 180, 240, 360, and 480 min, 1 mL of solution was extracted, and the withdrawn solutions were filtered using a 0.45 μm syringe tip filter. […] All the dissolution experiments were performed in triplicate. After the dissolution experiments, residual solids were collected, air-dried, and confirmed by PXRD.

The nature of series [4]: pKa values and ΔpKa rule. It counts as physicochemical. The text has this:
To understand the crystal nature of the obtained solid forms (a salt or a cocrystal), three commonly used principles have been summarized, such as the ΔpKa rule, the position of the hydroxyl-H atom retrieved from SCXRD data, and the structural characteristics of interacting groups. The pKa values of the starting functional groups, the ΔpKa values between the two considered groups, the geometric parameters of the C−O bond lengths of the carboxylic/carboxylate group, and the endocyclic C−N−C bond angle are provided in Table 2. Firstly, the ΔpKa rule has long been used for the prediction of salt or cocrystal formation. It is generally accepted that when ΔpKa is >4, proton transfer is expected to occur and salt is anticipated to form; when ΔpKa < −1, on the other hand, the formation of non-ionized cocrystals prevails over that of salts. However, if the ΔpKa values are located in the region of −1 to 4, it is impossible to provide a prediction of a salt or a cocrystal. […] Secondly, the residual density map provided by the SXRD data (Figure S3) could be used to distinguish the location of the H atom and, thus, the cocrystal, salt, and salt–cocrystal continuum could be distinguished. […] Thirdly, the ionization state of the structures was also supported by the difference in the C−O bond lengths in a carboxylic/carboxylate group and the bond angle of C24−N4−C25 in the imidazole ring. In a neutral carboxylic group, the length of C−O is longer than that of C=O, while in the carboxylate anion, there is nearly no difference between the bond lengths of C−O and C−O^− [47]. The endocyclic C−N−C bond angle of the cationic N-heterocycle is higher than that of the neutral state.

For series [5] the following is noted: value of the coformer (CCF) of the crystal named in the line; source not given; cited from earlier work.
A short description of series [6]: Accelerated stability test, PXRD. The series is classed as physicochemical. To be noted: high temperature 60 °C, high humidity 90%, illumination 4500 lx; 0, 5, 10 days. As for the experimental part: Approximately 50 mg of powdered samples were stored under the three test conditions and measured at regular time intervals (0, 5, and 10 days) by PXRD [68].

Regarding `CC(=O)N1CCN(c2ccc(OCC3COC(Cn4ccnc4)(c4ccc(Cl)cc4Cl)O3)cc2)CC1.O=C(O)c1ccc(O)c(O)c1` (racemic) [KTZ-PCA-I], in series [1] (ultrapure water), the “Solubility in ultrapure water” value is “approximately 500 μg mL^−1”.
For `CC(=O)N1CCN(c2ccc(OCC3COC(Cn4ccnc4)(c4ccc(Cl)cc4Cl)O3)cc2)CC1.O=C(O)c1c(O)cccc1O` (racemic) [KTZ−26DHB], in series [2] (distilled water (abstract)), the “Solubility of ketoconazole in distilled water” value (“Solubility of ketoconazole” below) turned out to be 139.1 µg/mL. Moreover, the “Equilibrium solubility, concentration of KTZ” value in series [2] (pH 4.5 acetate buffer) is 263.76 ± 8.51 µg/mL; in series [2] (ultrapure water), 139.13 ± 14.25 µg/mL. The “Solid-form stability of residual solids after equilibrium solubility experiments (PXRD)” value in series [2] (37 °C) was “remained stable and nondissociable”. In series [3], the “Solid-form stability of residual solids after powder dissolution experiments (PXRD)” value was “remained stable”. Also, the “ΔpKa Values between CCF and KTZ” value in series [4] was 3.9. Further, the “pKa Values of CCFs” value in series [5] is 1.6.
Consider `CC(=O)N1CCN(c2ccc(OCC3COC(Cn4ccnc4)(c4ccc(Cl)cc4Cl)O3)cc2)CC1.O=C(O)c1cc([N+](=O)[O-])cc([N+](=O)[O-])c1` (racemic) [KTZ−35DNB], for which the “Solubility of ketoconazole” value in series [2] (distilled water (abstract)) amounted to 191.7 µg/mL. Further, the “Equilibrium solubility, concentration of KTZ” value in series [2] (pH 4.5 acetate buffer) was determined as 273.66 ± 9.87 µg/mL; in series [2] (ultrapure water), 191.67 ± 15.95 µg/mL. In addition, the “Solid-form stability of residual solids after equilibrium solubility experiments (PXRD)” value in series [2] (37 °C) is “remained stable and nondissociable”. For the same molecule, the “Solid-form stability of residual solids after powder dissolution experiments (PXRD)” value in series [3] is listed as “remained stable”. The “ΔpKa Values between CCF and KTZ” value in series [4] is 3.7. In series [5], the “pKa Values of CCFs” value was 2.8.
For the molecule `CC(=O)N1CCN(c2ccc(OCC3COC(Cn4ccnc4)(c4ccc(Cl)cc4Cl)O3)cc2)CC1.O=C(O)CCCC(=O)O` (racemic) [KTZ−GTA], the “Solubility of ketoconazole” value in series [2] (distilled water (abstract)) came out at 2165.6 µg/mL. Besides, the “Equilibrium solubility, concentration of KTZ” value came to 339.87 ± 28.33 µg/mL in series [2] (pH 4.5 acetate buffer) and 2165.56 ± 251.34 µg/mL in series [2] (ultrapure water). In addition, the “Solubility increase in water concerning ketoconazole” value in series [2] (water) is 1800 fold. Besides, the “ΔpKa Values between CCF and KTZ” value in series [4] was determined as 2.2. Also, the “pKa Values of CCFs” value in series [5] was 4.3.
As to `CC(=O)N1CCN(c2ccc(OCC3COC(Cn4ccnc4)(c4ccc(Cl)cc4Cl)O3)cc2)CC1.O=C(O)c1ccc(O)c(O)c1` (racemic) [KTZ−PCA-II], in series [2] (distilled water (abstract)), the “Solubility of ketoconazole” value was 386.3 µg/mL. The “Equilibrium solubility, concentration of KTZ” value in series [2] (pH 4.5 acetate buffer) is 308.06 ± 33.95 µg/mL; in series [2] (ultrapure water), 386.34 ± 89.30 µg/mL. For the same molecule, in series [4], the “ΔpKa Values between CCF and KTZ” value turned out to be 2.0. The “pKa Values of CCFs” value in series [5] was 4.5.
Consider `CC(=O)N1CCN(c2ccc(OCC3COC(Cn4ccnc4)(c4ccc(Cl)cc4Cl)O3)cc2)CC1` (stereo not drawn) [KTZ, cis-1-acetyl-4-[4-[[2-(2,4-dichlorophenyl)-2-(1-H-imidazole-1-ylmethyl)-1,3-dioxolan-4-yl]methoxy]phenyl] piperazine, reference compound], for which the solubility at 48 h in series [2] (37 °C, thermodynamic from solid, distilled water (abstract), read-out: Solubility of ketoconazole in distilled water) came out at 1.2 µg/mL (≈ 2.26 µM). Besides, the thermodynamic solubility at 48 h in series [2] (aqueous buffer, thermodynamic from solid, pH 4.5 acetate buffer) worked out at 239 ± 4.69 µg/mL (≈ 451 µM); in series [2] (thermodynamic from solid, ultrapure water) it was 1.2 ± 0.27 µg/mL (≈ 2.26 µM). Further, the “Stability under accelerated storage conditions (PXRD)” value in series [6] is given as “stable”. Further, the Solubility in water in series [1] (water, 25 °C) was 0.087 µg/mL (≈ 0.164 µM).

As usually defined, the solubility is the concentration that dissolves in the medium under given conditions. The term solubility (thermodynamic) denotes solubility found after equilibrating the solid with the medium.
